Reference: ChEMBL document CHEMBL5154748, “Discovery of novel 3-butyl-6-benzyloxyphthalide Mannich base derivatives as multifunctional agents against Alzheimer's disease” (Bioorg Med Chem, 2022)

Legend:
[1] = target: Acetylcholinesterase (Electrophorus electricus, UniProt O42275); assay: Inhibition of Electric eel AChE by Ellman's method
[2] = target: Butyrylcholinesterase (Rattus norvegicus) (UniProt Q9JKC1); assay: Inhibition of Rat BuChE at 10 uM by Ellman's method
[3] = target: T1, Amine oxidase [flavin-containing] A (Homo sapiens, UniProt P21397); assay: Inhibition of human MAO-A at 10 uM by fluorescence assay
T1 sequence (P21397 whole entry): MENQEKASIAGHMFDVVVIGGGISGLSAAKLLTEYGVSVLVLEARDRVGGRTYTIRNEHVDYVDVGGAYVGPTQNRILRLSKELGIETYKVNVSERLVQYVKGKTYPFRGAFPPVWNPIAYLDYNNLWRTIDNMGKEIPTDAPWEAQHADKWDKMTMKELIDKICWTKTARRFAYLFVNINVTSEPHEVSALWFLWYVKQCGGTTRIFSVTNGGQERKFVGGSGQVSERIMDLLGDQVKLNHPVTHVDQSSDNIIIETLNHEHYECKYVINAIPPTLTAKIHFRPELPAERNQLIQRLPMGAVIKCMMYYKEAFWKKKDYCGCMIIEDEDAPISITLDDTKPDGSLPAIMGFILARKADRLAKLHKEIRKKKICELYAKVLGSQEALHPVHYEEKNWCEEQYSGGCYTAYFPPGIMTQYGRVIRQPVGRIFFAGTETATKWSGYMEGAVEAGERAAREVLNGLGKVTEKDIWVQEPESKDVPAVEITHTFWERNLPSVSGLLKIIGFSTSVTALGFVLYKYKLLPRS

[4] = target: T2, Amine oxidase [flavin-containing] B (Homo sapiens, UniProt P27338); assay: Inhibition of human MAO-B at 10 uM by fluorescence assay
T2 sequence (P27338 whole entry): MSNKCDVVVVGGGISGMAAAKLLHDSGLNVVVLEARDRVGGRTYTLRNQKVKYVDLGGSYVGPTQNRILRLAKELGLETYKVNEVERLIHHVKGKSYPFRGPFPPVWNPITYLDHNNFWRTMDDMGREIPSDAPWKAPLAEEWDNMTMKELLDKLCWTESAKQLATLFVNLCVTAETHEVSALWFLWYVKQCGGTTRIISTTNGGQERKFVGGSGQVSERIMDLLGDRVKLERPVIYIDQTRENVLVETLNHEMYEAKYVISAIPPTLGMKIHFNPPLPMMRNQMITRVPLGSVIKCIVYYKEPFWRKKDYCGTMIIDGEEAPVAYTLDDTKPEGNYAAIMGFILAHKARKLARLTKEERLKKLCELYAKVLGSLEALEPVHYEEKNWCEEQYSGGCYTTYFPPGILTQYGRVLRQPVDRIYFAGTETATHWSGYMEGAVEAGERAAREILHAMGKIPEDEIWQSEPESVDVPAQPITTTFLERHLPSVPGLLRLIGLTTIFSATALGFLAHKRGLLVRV

[5] = Antioxidant activity assessed as trolox equivalent of ORAC radical scavenging activity by ORAC-FL assay; format: functional
[6] = target: Acetylcholinesterase (Electrophorus electricus) (UniProt O42275); assay: Inhibition of Electric eel AChE at 10 uM by Ellman's method
Chain of Acetylcholinesterase (Electrophorus electricus) (O42275 24-633 limits assumed): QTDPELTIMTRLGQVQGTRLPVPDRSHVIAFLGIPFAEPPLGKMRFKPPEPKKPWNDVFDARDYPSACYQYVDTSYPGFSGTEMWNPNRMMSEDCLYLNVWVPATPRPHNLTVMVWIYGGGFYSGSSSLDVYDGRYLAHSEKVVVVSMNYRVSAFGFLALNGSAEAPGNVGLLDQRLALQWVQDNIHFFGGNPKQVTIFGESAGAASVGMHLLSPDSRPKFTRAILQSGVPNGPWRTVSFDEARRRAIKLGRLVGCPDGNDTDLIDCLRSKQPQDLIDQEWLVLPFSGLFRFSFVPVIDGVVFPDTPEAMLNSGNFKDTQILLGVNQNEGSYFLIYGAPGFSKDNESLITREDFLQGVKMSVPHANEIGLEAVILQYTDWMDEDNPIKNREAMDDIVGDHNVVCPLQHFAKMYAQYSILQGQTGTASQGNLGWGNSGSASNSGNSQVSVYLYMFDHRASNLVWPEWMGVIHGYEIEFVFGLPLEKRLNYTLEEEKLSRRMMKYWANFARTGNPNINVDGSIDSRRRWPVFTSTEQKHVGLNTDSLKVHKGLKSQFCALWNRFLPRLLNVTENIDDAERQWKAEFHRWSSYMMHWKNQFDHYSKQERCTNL

[7] = target: Acetylcholinesterase (Homo sapiens, UniProt P22303); assay: Inhibition of Human AChE by Ellman's method
Chain of Acetylcholinesterase (Homo sapiens, UniProt P22303) (P22303 whole entry): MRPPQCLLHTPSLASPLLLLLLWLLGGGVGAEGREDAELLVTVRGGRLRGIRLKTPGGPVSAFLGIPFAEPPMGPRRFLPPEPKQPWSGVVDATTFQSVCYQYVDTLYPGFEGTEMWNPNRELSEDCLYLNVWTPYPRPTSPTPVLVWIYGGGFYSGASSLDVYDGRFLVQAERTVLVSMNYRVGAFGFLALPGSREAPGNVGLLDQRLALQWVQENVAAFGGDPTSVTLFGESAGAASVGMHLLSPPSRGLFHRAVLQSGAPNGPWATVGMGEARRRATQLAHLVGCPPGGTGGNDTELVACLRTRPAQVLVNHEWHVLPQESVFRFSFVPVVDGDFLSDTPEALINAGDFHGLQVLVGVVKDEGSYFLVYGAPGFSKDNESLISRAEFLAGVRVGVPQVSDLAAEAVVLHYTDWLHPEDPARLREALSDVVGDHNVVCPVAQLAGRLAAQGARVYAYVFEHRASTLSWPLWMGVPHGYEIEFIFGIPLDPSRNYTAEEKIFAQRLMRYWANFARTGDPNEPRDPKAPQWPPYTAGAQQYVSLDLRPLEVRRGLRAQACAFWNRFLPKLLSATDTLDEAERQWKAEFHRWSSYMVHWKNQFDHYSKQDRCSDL

[8] = target: T2, Amine oxidase [flavin-containing] B; assay: Inhibition of human MAO-B by fluorescence assay

Chain of Acetylcholinesterase (Electrophorus electricus, UniProt O42275) (O42275 whole entry): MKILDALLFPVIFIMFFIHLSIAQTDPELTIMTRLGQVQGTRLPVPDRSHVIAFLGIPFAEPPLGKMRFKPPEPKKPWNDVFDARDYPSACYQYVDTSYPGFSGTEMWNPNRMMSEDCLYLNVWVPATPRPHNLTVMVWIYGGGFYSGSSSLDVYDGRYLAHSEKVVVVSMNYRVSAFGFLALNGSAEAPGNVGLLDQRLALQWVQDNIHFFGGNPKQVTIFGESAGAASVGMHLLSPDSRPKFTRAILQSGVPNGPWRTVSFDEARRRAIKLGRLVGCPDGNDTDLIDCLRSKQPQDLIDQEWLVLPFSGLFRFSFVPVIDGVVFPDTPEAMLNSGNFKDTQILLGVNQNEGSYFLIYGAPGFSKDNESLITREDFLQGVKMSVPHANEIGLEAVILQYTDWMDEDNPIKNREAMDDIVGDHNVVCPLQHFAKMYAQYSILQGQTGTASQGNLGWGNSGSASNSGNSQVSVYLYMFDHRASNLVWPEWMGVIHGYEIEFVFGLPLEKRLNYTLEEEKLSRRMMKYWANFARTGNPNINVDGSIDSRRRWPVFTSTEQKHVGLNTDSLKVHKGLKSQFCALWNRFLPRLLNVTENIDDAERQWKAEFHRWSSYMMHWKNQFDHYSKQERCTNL
Chain of Butyrylcholinesterase (Rattus norvegicus) (Q9JKC1 as listed by the source): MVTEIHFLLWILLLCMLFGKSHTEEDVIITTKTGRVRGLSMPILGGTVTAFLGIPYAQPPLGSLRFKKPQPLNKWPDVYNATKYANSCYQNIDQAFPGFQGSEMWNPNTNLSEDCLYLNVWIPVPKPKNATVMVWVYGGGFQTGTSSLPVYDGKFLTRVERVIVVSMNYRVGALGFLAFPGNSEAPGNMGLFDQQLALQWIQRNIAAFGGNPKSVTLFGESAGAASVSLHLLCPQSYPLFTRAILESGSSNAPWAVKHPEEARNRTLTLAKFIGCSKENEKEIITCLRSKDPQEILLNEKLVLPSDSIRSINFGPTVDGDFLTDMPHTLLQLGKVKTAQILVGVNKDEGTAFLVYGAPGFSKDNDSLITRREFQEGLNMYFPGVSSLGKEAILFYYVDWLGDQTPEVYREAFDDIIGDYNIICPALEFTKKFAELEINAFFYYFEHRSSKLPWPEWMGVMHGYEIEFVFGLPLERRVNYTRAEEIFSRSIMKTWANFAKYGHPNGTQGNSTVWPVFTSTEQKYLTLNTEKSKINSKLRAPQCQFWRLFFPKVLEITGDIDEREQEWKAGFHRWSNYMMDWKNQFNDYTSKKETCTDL

Row | Compound | IC50 [1] [µM] | inhibition [2] [%] | inhibition at 10 µM [3] [%] | inhibition at 10 µM [4] [%] | Activity [5] | inhibition [6] [%] | IC50 [7] [µM] | IC50 [8] [µM]
1 | CCCCC1OC(=O)c2cc(OCc3cccc(CN4CCCC4)c3O)ccc21 (centres undefined) | 26.7 | 5.8 | 23.5 | 6.9 | 2.38 |  |  | 
2 | CCCCC1OC(=O)c2cc(OCc3cccc(CN4CCN(CC)CC4)c3O)ccc21 (centres undefined) |  | < 5 | 12.8 | 28.8 | 1.67 | 20.7 |  | 
3 | CCCCC1OC(=O)c2cc(OCc3ccc(CN4CCCC4)c(O)c3)ccc21 (centres undefined) | 0.89 | 10 | 23.7 |  | 1.73 |  | 3.92 | 0.94
4 | CCCCC1OC(=O)c2cc(OCc3cccc(O)c3)ccc21 (centres undefined) |  | < 5 | 29.3 |  | 0.88 | 38.6 |  | 3.3
5 | CCCCC1OC(=O)c2cc(OCc3ccc(CN(C)C)c(O)c3)ccc21 (centres undefined) | 5.39 | 11.8 | 29 |  | 1.62 |  | 8.78 | 6.9
6 | CCCCC1OC(=O)c2cc(OCc3ccc(CN4CCN(CC)CC4)c(O)c3)ccc21 (centres undefined) | 14.8 | 6.5 | 17.5 |  | 0.77 |  |  | 2.53
7 | CCCCC1OC(=O)c2cc(OCc3cccc(CN(CC)Cc4ccccc4)c3O)ccc21 (centres undefined) |  | < 5 | 5.4 | 12.5 | 1.86 | 15.3 |  | 
8 | CCCCC1OC(=O)c2cc(OCc3ccc(CN4CCN(C)CC4)c(O)c3)ccc21 (centres undefined) | 13.6 | < 5 | 22.5 |  | 0.96 |  | 23.8 | 2.39
9 | CCCCC1OC(=O)c2cc(OCc3ccc(CN4CCOCC4)c(O)c3)ccc21 (centres undefined) | 8.37 | < 5 | 27.9 |  | 1.12 |  | 3.32 | 1.42
